Residues, ends and D or L forms follow the SMILES beside them.
Key:
[1] = system: transplant patients; experiment: Cyclosporine nephrotoxicity and organ health in transplant patients; type: in vivo, human; settings: subjects receiving cyclosporine
Text: To prevent organ or tissue rejection after transplant, patients often receive a regimen of the immunosuppressive drug cyclosporine. Cyclosporine levels are established and maintained in the subject at levels to effectively suppress the immune system. However, nephrotoxicity is a concern for these subjects, and the level of the drug in the subject's blood is monitored carefully. Cyclosporine doses are adjusted accordingly in order to not only prevent rejection, but also to deter these potentially damaging side effects. Typically, an adult transplant patient receives cyclosporine as follows: IV: 2 to 4 mg/kg/day IV infusion once daily over 4 to 6 hours, or 1 to 2 mg/kg IV infusion twice a day over 4 to 6 hours, or 2 to 4 mg/kg/day as a continuous IV infusion over 24 hours. Capsules: 8 to 12 mg/kg/day orally in 2 divided doses. Solution: 8 to 12 mg/kg orally once daily. In some patients, doses can be titrated downward with time to maintenance doses as low as 3 to 5 mg/kg/day. […]
Transplant subjects receiving cyclosporine pursuant to standard pre- and post-transplant procedures will be divided into groups. […] Subjects will be monitored for health and function of the transplanted tissue or organ, as well as the incidence and severity of nephrotoxicity often seen with prolonged cyclosporine administration.

[2] = system: high-fat fed rats; experiment: Example 33: ROS production and redox state in rats fed a high-fat diet; type: in vivo, rat
Procedure: Ten rats maintained on a high-fat diet will receive daily intraperitoneal injections of peptide conjugates (1.5 mg/kg); aromatic-cationic peptides (an equivalent molar dose of aromatic-cationic peptide based on the concentration of the aromatic-cationic peptide administered in the peptide conjugate treatment group); SPN10(s) (an equivalent molar dose of SPN10 based on the concentration of SPN10 administered in the peptide conjugate treatment group); or SPN10(s) in combination with aromatic-cationic peptides (e.g., an equivalent molar dose of SPN10 based on the concentration of SPN10 administered in the peptide conjugate treatment group and an equivalent molar dose of aromatic-cationic peptide based on the concentration of aromatic-cationic peptide administered in the peptide conjugate treatment group) dissolved in phosphate-buffered saline. Dose response curves for peptide conjugates, aromatic-cationic peptides and SPN10(s) with or without aromatic-cationic peptides will be established in vitro and in vivo. Mitochondrial function will be measured according to the methods described herein.
Next, rats will be placed on a high-fat diet (60%) for six weeks with daily administration of vehicle, peptide conjugates, aromatic-cationic peptides, or SPN10(s) with or without aromatic-cationic peptides.
Protein homogenates will be prepared by homogenizing 100 mg of frozen muscle in a buffer containing 10 mM Tris, 1 mM EDTA, 1 mM EGTA, 2 mM NaOrthovanadate, 2 mM NaPyrophosphate, 5 mM NaF, and protease inhibitor cocktail (Complete), at pH 7.2. After homogenization, 1% Triton X-100 will be added to the protein suspension, which will be vortexed and incubated on ice for 5 minutes. Samples will be centrifuged at 10,000 rpm for 10 minutes to pellet the insoluble debris. For GSSG measurement, tissue will be homogenized in a solution containing 20 mM Methyl-2-vinylpyridinium triflate to scavenge all reduced thiols in the sample. Total GSH and GSSG will be measured using a commercially available GSH/GSSG assay (Oxis Research Products, Percipio Biosciences, Foster City, CA, U.S.A).
To establish a link between the increased mitochondrial H2O2 production brought about by high-fat diet and its effect on overall redox environment of skeletal muscle, both GSH and GSSG will be measured in skeletal muscle from standard chow-fed and high-fat fed rats 1) following a 10 hour fast, and 2) 1 hour after administration of a standard glucose load (oral gavage, 10 hour fasted).

[3] = system: cell stress recovery; settings: Mitchell et al., bioRxiv, cited from earlier work
[4] = system: high-fat fed rats; experiment: Example 34: insulin resistance in rats fed a high-fat diet; type: in vivo, rat
Procedure: On the day of testing, food will be removed 10 hours prior to administration of a 2 g/kg glucose solution via oral gavage. Glucose levels will be determined on whole blood samples (Lifescan, Milpitas, CA, U.S.A.). Serum insulin levels will be determined using a rat/mouse ELISA kit (Linco Research, St. Charles, MO, U.S.A.). Fasting data will be used to determine homeostatic model assessment (HOMA)-calculated as fasting insulin (mU/mL)×fasting glucose (mM)/22.5.
To further assess insulin sensitivity, the phosphorylation state of the insulin signaling protein Akt in skeletal muscle will be measured 1) following a 10 hour fast, and 2) 1 hour after receiving an oral glucose load. It is anticipated that in response to glucose ingestion, Akt phosphorylation will increase in skeletal muscle of standard chow-fed controls but will remain essentially unchanged in high-fat fed rats, confirming the presence of insulin resistance at the level of insulin signaling.

[5] = system: isolated mitochondria; experiment: Example 13: mitochondrial swelling (A540) and cytochrome c release (ELISA)
Text: MPT pore opening results in mitochondrial swelling. […] Mitochondrial suspensions will be centrifuged and the amount of cytochrome c in the pellet and supernatant will be determined using a commercially available ELISA kit.

[6] = system: Caco-2 cells; experiment: Example 12: 3NP-induced mitochondrial depolarization (TMRM, CLSM); type: cell-based, human; settings: 3NP 10 mM, 4 hours
Procedure: Caco-2 cells will be treated with 3NP (10 mM) alone or in the presence of peptide conjugates (0.1 μM); aromatic-cationic peptides (an equivalent molar dose of aromatic-cationic peptide based on the concentration of the aromatic-cationic peptide administered in the peptide conjugate treatment group); SPN10(s) (an equivalent molar dose of SPN10 based on the concentration of SPN10 administered in the peptide conjugate treatment group); or SPN10(s) in combination with aromatic-cationic peptides (e.g., an equivalent molar dose of SPN10 based on the concentration of SPN10 administered in the peptide conjugate treatment group and an equivalent molar dose of aromatic-cationic peptide based on the concentration of aromatic-cationic peptide administered in the peptide conjugate treatment group) for 4 hours, and then incubated with TMRM and examined by CLSM. It is expected that 3NP-treated cells will display reduced fluorescence compared to control cells, which indicates mitochondrial depolarization.

[7] = system: isolated mouse liver mitochondria; experiment: Example 11: mitochondrial respiration and membrane potential
Procedure: Isolated mouse liver mitochondria will be incubated with 100 pM of SPN10(s) (with or without aromatic-cationic peptides) or peptide conjugates, and oxygen consumption will be measured. […] Mitochondrial membrane potential will be measured using TMRM. It is anticipated that addition of mitochondria will result in immediate quenching of the TMRM signal, which will be readily reversible by the addition of FCCP, indicating mitochondrial depolarization. It is anticipated that the addition of Ca^2+ (150 μM) will result in immediate mitochondrial depolarization followed by progressive loss of quenching indicative of MPT.

N=C(N)NCCC[C@H](NC(=O)[C@@H](N)Cc1c[nH]c2ccccc12)C(=O)N[C@@H](Cc1c[nH]c2ccccc12)C(=O)N[C@@H](CCCCN)C(N)=O [SPN10, H-L-Trp-L-Arg-L-Trp-L-Lys-NH2] (H-WRWK-NH2)
health of transplanted organ or tissue, cyclosporine dosage maintained [1]: healthier transplanted organ or tissue
GSH/GSSG ratio in skeletal muscle ([2]; even following glucose ingestion): preserve the GSH/GSSG ratio near control levels
mitochondrial H2O2 production during succinate and palmitoyl-carnitine supported respiration ([2]; high-fat diet (60%) six weeks, daily administration): reduction in mitochondrial H2O2 production
mitochondrial H2O2 production during succinate-supported respiration (dose response curves) ([2]; in vitro and in vivo): reduction in mitochondrial H2O2 production
reduction in total cellular glutathione content (GSHt) by high-fat feeding ([2]; skeletal muscle): irrespective of treatment
potency in cell stress recovery ([3]; among SS-31, SS-20, SPN4, SPN10): greatest potency
performance compared with SS-31 (cell culture assays, structure-activity analysis) [3]: consistently outperformed SS-31
blood glucose and insulin responses to the oral glucose challenge ([4]; 2 g/kg glucose, six weeks high-fat diet): normalize blood glucose and insulin responses
Akt phosphorylation in skeletal muscle in response to glucose ingestion ([4]; rat, in vivo): increase Akt phosphorylation
development of insulin resistance (HOMA) ([4]; rat, in vivo): suppress the development of insulin resistance
mitochondrial swelling induced by MPP^+ [5]: prevent mitochondrial swelling
swelling and cytochrome c release induced by Ca^2+ overload ([5]; pre-treatment): inhibit swelling and cytochrome c release
mitochondrial depolarization caused by 3NP [6]: protect against mitochondrial depolarization
respiratory ratio (state 3/state 4) ([7]; 100 pM): 6.2 versus 6.0
mitochondrial depolarization or MPT by the compound alone (TMRM) ([7]; even at 200 μM): will not cause mitochondrial depolarization or MPT

— patent US20240108740A1, “THERAPEUTIC COMPOSITIONS INCLUDING SPN10 AND USES THEREOF” (Stealth BioTherapeutics Inc., priority 2022, published 2024)
